These results are taken from patent US12662469B2 (SIRONAX LTD, priority 2018, dated 2026).

A word on the EC50: it is the concentration needed to bring the measured effect to its halfway point.

The first experiment concerns Cell Necrosis. Briefly: Cell necrosis assay / cell viability assay (necrosis inhibitor activity).
Settings: not given
The experiment is classed as cell-based.
In the case of `O=C1COc2cc(F)c(OC3CN(C(=O)N4N=CC[C@@H]4c4ccccc4)C3)cc2N1` [(R)-7-fluoro-6-((1-(5-phenyl-4,5-dihydro-1H-pyrazole-1-carbonyl)azetidin-3-yl)oxy)-2H-benzo[b][1,4]oxazin-3(4H)-one], the “activity based on the cell activity assay” value is “weak activity”.

Still in this experiment, the particulars now being: necrosis inhibitor activity; EC data for 14-191 extrapolated; read-out: EC50.
Take `CNC(=O)c1c(F)cc(OC2CN(C(=O)N3N=CCC3c3cc(F)cc(F)c3)C2)cc1F` (stereo not drawn) [Compound 160]: the EC50 was 0.001 to 1 µM.

As to `O=C(N1CC(=Cc2c(F)cccc2F)C1)N1N=CCC1c1cc(F)cc(F)c1` (stereo not drawn) [Compound 133, (3-(2,6-difluorobenzylidene)azetidin-1-yl)(5-(3,5-difluorophenyl)-4,5-dihydro-1H-pyrazol-1-yl)methanone], the EC50 was 0.001 to 1 µM.

For the compound `Cc1csc(N2CCN(C(=O)N3N=CCC3c3ccccc3)CC2)n1` (stereo not drawn) [Compound 105, (4-(4-methylthiazol-2-yl)piperazin-1-yl)(5-phenyl-4,5-dihydro-1H-pyrazol-1-yl)methanone], the EC50 is 1 to 10 µM.

For the compound `C[C@H]1CN(c2ncc(F)cn2)CCN1C(=O)N1N=CC[C@H]1c1cc(F)cc(F)c1` [Compound 118A, ((S)-5-(3,5-difluorophenyl)-4,5-dihydro-1H-pyrazol-1-yl)((S)-4-(5-fluoropyrimidin-2-yl)-2-methylpiperazin-1-yl)methanone], the EC50 is 0.001 to 1 µM.

Consider `O=C(N1CC[C@@H](Oc2ccc(F)cc2)C1)N1N=CCC1c1ccccc1` (stereo partly drawn) [Compound 33, ((R)-3-(4-fluorophenoxy)pyrrolidin-1-yl)(5-phenyl-4,5-dihydro-1H-pyrazol-1-yl)methanone], for which the EC50 was 0.001 to 1 µM.

For the compound `O=C(N1CC(Cc2cccc(Cl)c2)C1)N1N=CCC1c1ccccc1` (stereo not drawn) [Compound 48, (3-(3-chlorobenzyl)azetidin-1-yl)(5-phenyl-4,5-dihydro-1H-pyrazol-1-yl)methanone], the EC50 is 0.001 to 1 µM.

On to `CNC(=O)c1coc(OC2CN(C(=O)N3N=CCC3c3cc(F)cc(F)c3)C2)n1` (stereo not drawn) [Compound 173], for which the EC50 is 0.001 to 1 µM.

Consider `C[C@H]1CN(c2ncccn2)CCN1C(=O)N1N=CCC1c1ccccc1` (stereo in doubt) [Compound 112A, (S)-(2-methyl-4-(pyrimidin-2-yl)piperazin-1-yl)(5-phenyl-4,5-dihydro-1H-pyrazol-1-yl)methanone], for which the EC50 is 0.001 to 1 µM.

Turning to `C[C@@H]1CN(c2ncc(F)cn2)C[C@@H](C)N1C(=O)N1N=CCC1c1ccccc1` (stereo partly drawn) [Compound 122, ((2R,6R)-4-(5-fluoropyrimidin-2-yl)-2,6-dimethylpiperazin-1-yl)(5-phenyl-4,5-dihydro-1H-pyrazol-1-yl)methanone], the EC50 was 1 to 10 µM.

As to `O=C(N1CCN(c2nccc(O)n2)CC1)N1N=CCC1c1ccccc1` (stereo not drawn) [Compound 103, (4-(4-hydroxypyrimidin-2-yl)piperazin-1-yl)(5-phenyl-4,5-dihydro-1H-pyrazol-1-yl)methanone], the EC50 is 1 to 10 µM.

With `O=C(N1CCN(c2cncnc2)CC1)N1N=CCC1c1ccccc1` (stereo not drawn) [Compound 99, (5-phenyl-4,5-dihydro-1H-pyrazol-1-yl)(4-(pyrimidin-5-yl)piperazin-1-yl)methanone], the EC50 was 1 to 10 µM.

In the case of `CNC(=O)c1ccc(OC2CN(C(=O)N3N=CCC3c3cc(F)cc(F)c3)C2)cc1` (stereo not drawn) [Compound 165], the EC50 was 0.001 to 1 µM.

With `C[C@H]1CN(c2ncc(F)cn2)CCN1C(=O)N1N=CC[C@@H]1c1cc(F)cc(F)c1` [Compound 118B, ((R)-5-(3,5-difluorophenyl)-4,5-dihydro-1H-pyrazol-1-yl)((S)-4-(5-fluoropyrimidin-2-yl)-2-methylpiperazin-1-yl)methanone], the EC50 was 0.001 to 1 µM.

Still in this experiment, the particulars now being: necrosis inhibitor activity; compounds outside 14-191; read-out: EC50.
Turning to `O=C(N1CC(Oc2ccc(Cl)nc2F)C1)N1N=CC[C@H]1c1cc(F)cc(F)c1` [Compound 338, (S)-(3-((6-chloro-2-fluoropyridin-3-yl)oxy)azetidin-1-yl)(5-(3,5-difluorophenyl)-4,5-dihydro-1H-pyrazol-1-yl)methanone], the EC50 was in the range of 0.001 to 1 µM.

For the compound `N#Cc1nccc(O[C@@H]2CCN(C(=O)N3N=CC[C@H]3c3cc(F)cc(F)c3)C2)n1` [Compound 362, 4-(((R)-1-((S)-5-(3,5-difluorophenyl)-4,5-dihydro-1H-pyrazole-1-carbonyl)pyrrolidin-3-yl)oxy)pyrimidine-2-carbonitrile], the EC50 fell in the range of 0.001 to 1 µM.

For the compound `O=C(N1CC(=Cc2cc3[nH]nc(F)c3cc2F)C1)N1N=CC[C@H]1c1cc(F)cc(F)c1` [Compound 301, (S)-(3-((3,5-difluoro-1H-indazol-6-yl)methylene)azetidin-1-yl)(5-(3,5-difluorophenyl)-4,5-dihydro-1H-pyrazol-1-yl)methanone], the EC50 is 0.001 to 1 µM.

As for `O=C(N1CC(=Cc2ccc(F)nc2)C1)N1N=CCC1c1cc(F)cc(F)c1` (stereo not drawn) [Compound 305, (5-(3,5-difluorophenyl)-4,5-dihydro-1H-pyrazol-1-yl)(3-((6-fluoropyridin-3-yl)methylene)azetidin-1-yl)methanone], the EC50 lay in the range of 0.001 to 1 µM.

Take `O=C(N1CC(Oc2cc3[nH]c(=O)ccc3cc2F)C1)N1N=CC[C@H]1c1cc(F)cc(F)c1` [Compound 253, (S)-7-((1-(5-(3,5-difluorophenyl)-4,5-dihydro-1H-pyrazole-1-carbonyl)140zetidine-3-yl)oxy)-6-fluoroquinolin-2(1H)-one]: the EC50 was in the range of 0.001 to 1 µM.

Take `CC(=O)Nc1nccc(O[C@@H]2CCN(C(=O)N3N=CC[C@H]3c3cc(F)cc(F)c3)C2)n1` [Compound 368, N-(4-(((R)-1-((S)-5-(3,5-difluorophenyl)-4,5-dihydro-H-pyrazole-1-carbonyl)pyrrolidin-3-yl)oxy)pyrimidin-2-yl)acetamide]: the EC50 was in the range of 0.001 to 1 µM.

Turning to `CNc1nccc(O[C@@H]2CCN(C(=O)N3N=CC[C@H]3c3cc(F)cc(F)c3)C2)n1` [Compound 370], the EC50 was in the range of 0.001 to 1 µM.

In the case of `O=C(N1CC(=Cc2cc(F)ncc2F)C1)N1N=CC[C@H]1c1cc(F)cc(F)c1` [Compound 329], the EC50 fell in the range of 0.001 to 1 µM.

With `N#Cc1cccc(C2CC=NN2C(=O)N2CC(Oc3cc4[nH]nc(F)c4cc3F)C2)c1` (stereo not drawn) [Compound 380, 3-(1-(3-((3,5-difluoro-1H-indazol-6-yl)oxy)azetidine-1-carbonyl)-4,5-dihydro-1H-pyrazol-5-yl)benzonitrile], the EC50 lay in the range of 0.001 to 1 µM.

Take `N#Cc1ccc(F)c(OC2CN(C(=O)N3N=CC[C@H]3c3cc(F)cc(F)c3)C2)c1` [Compound 235, (S)-3-((1-(5-(3,5-difluorophenyl)-4,5-dihydro-1H-pyrazole-1-carbonyl)azetidin-3-yl)oxy)-4-fluorobenzonitrile]: the EC50 fell in the range of 0.001 to 1 µM.

Take `N#Cc1cc(F)cc([C@@H]2CC=NN2C(=O)N2CC(=Cc3cc4[nH]nc(F)c4cc3F)C2)c1` [Compound 297, (S)-3-(1-(3-((3,5-difluoro-1H-indazol-6-yl)methylene)azetidine-1-carbonyl)-4,5-dihydro-1H-pyrazol-5-yl)-5-fluorobenzonitrile]: the EC50 is 0.001 to 1 µM.

For the compound `N#Cc1cccc([C@@H]2CC=NN2C(=O)N2CC(Oc3cc4c(cc3F)OCC(=O)N4)C2)c1` [Compound 195], the EC50 lay in the range of 0.001 to 1 µM.

Regarding `O=C1COc2ccc(OC3CN(C(=O)N4N=CC[C@H]4c4ccccc4)C3)cc2N1` [Compound 199, (S)-6-((1-(5-phenyl-4,5-dihydro-1H-pyrazole-1-carbonyl)azetidin-3-yl)oxy)-2H-benzo[b][1,4]oxazin-3(4H)-one], the EC50 was 0.001 to 1 µM.

As for `O=C(N1CC(=Cc2cc3[nH]nc(F)c3cc2F)C1)N1N=CCC1c1ccccc1` (stereo not drawn) [Compound 296, (3-((3,5-difluoro-1H-indazol-6-yl)methylene)azetidin-1-yl)(5-phenyl-4,5-dihydro-1H-pyrazol-1-yl)methanone], the EC50 is 0.001 to 1 µM.

With `O=C(N1CC(=Cc2ccc3oncc3c2)C1)N1N=CC[C@H]1c1cc(F)cc(F)c1` [Compound 318, (S)-(3-(benzo[d]isoxazol-5-ylmethylene)azetidin-1-yl)(5-(3,5-difluorophenyl)-4,5-dihydro-1H-pyrazol-1-yl)methanone], the EC50 was in the range of 0.001 to 1 µM.

On to `O=C(N1CC[C@@H](Oc2ccnc3ccnn23)C1)N1N=CC[C@H]1c1cc(F)cc(F)c1` [Compound 242, ((S)-5-(3,5-difluorophenyl)-4,5-dihydro-1H-pyrazol-1-yl)((R)-3-(pyrazolo[1,5-a]pyrimidin-7-yloxy)pyrrolidin-1-yl)methanone], for which the half-maximal effective concentration (EC50) lay in the range of 0.001 to 1 µM.

Consider `CNC(=O)c1cc2sc(OC3CN(C(=O)N4N=CC[C@H]4c4cc(F)cc(F)c4)C3)nc2[nH]1` [Compound 258, (S)-2-((1-(5-(3,5-difluorophenyl)-4,5-dihydro-1H-pyrazole-1-carbonyl)azetidin-3-yl)oxy)-N-methyl-4H-pyrrolo[2,3-d]thiazole-5-carboxamide], for which the 50% effective concentration (EC50) was in the range of 0.001 to 1 µM.

Regarding `N#Cc1cnc2ccc(O[C@@H]3CCN(C(=O)N4N=CC[C@H]4c4cc(F)cc(F)c4)C3)nn12` [Compound 240, 6-(((R)-1-((S)-5-(3,5-difluorophenyl)-4,5-dihydro-1H-pyrazole-1-carbonyl)pyrrolidin-3-yl)oxy)imidazo[1,2-b]pyridazine-3-carbonitrile], the EC50 fell in the range of 0.001 to 1 µM.

As for `COc1nc(O[C@@H]2CCN(C(=O)N3N=CC[C@H]3c3cc(F)cc(F)c3)C2)ncc1F` [Compound 363, ((S)-5-(3,5-difluorophenyl)-4,5-dihydro-1H-pyrazol-1-yl)((R)-3-((5-fluoro-4-methoxypyrimidin-2-yl)oxy)pyrrolidin-1-yl)methanone], the concentration for a half-maximal effect (EC50) was 0.001 to 1 µM.

As for `O=C(NC1CCCCC1)N1N=CCC1c1ccccc1` (stereo not drawn) [Compound 10, N-cyclohexyl-5-phenyl-4,5-dihydro-1H-pyrazole-1-carboxamide], the EC50 was in the range of 1 to 10 µM.

As to `O=C1Cc2cnc(N3CCN(C(=O)N4N=CC[C@H]4c4cc(F)cc(F)c4)CC3)nc2N1` [Compound 386, (S)-2-(4-(5-(3,5-difluorophenyl)-4,5-dihydro-1H-pyrazole-1-carbonyl)piperazin-1-yl)-5,7-dihydro-6H-pyrrolo[2,3-d]pyrimidin-6-one], the 50% effective concentration (EC50) lay in the range of 0.001 to 1 µM.

Take `N#Cc1ccnc(N2CCN(C(=O)N3N=CC[C@H]3c3cc(F)cc(F)c3)CC2)c1` [Compound 232, (S)-2-(4-(5-(3,5-difluorophenyl)-4,5-dihydro-1H-pyrazole-1-carbonyl)piperazin-1-yl)isonicotinonitrile]: the EC50 fell in the range of 0.001 to 1 µM.
